SMILES strings stand for the structures.

Drawing on the supplement of paper PMC10627819, this text covers Bliss interaction score for 32 compounds.

Holding throughout (test): Bliss interaction score (quartile over a dose matrix) (fitness difference); higher = more antagonism (negative = synergy)
Assay [1] deals with S. pneumoniae D39V. The method in brief:
(§1)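 Quartiles summarise the Bliss score over technical, biological and donor/recipient replicates, where the score is observed minus expected fitness under a product model. Expected fitness uses single-drug values inferred from combination data. Fitness is OD595 at entry into stationary phase over the plate's robust no-drug mean, capped at 1.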

The subject of assay [2] is S. aureus Newman. In short, it runs like this:
as §1

For assay [3], the system named is B. subtilis 168. The method in brief:
as §1

Assay [4] has as its system S. aureus DSM 20231. The method in brief:
as §1
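Also: first quartile when negative (synergy) and third quartile when positive (antagonism).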

Consider `CC1(C)S[C@@H]2[C@H](NC(=O)[C@H](N)c3ccc(O)cc3)C(=O)N2[C@H]1C(=O)O` [Amoxicillin] + C1=CC(=CC(=C1)Cl)NN=C(C#N)C#N [CCCP], for which the Bliss interaction score is -0.0978 in assay [1], -0.0504 in assay [2], 0.115 in assay [3] and -0.0295 in assay [4].
Taken in the same sequence, the figures for `CC1(C)S[C@@H]2[C@H](NC(=O)[C@H](N)c3ccc(O)cc3)C(=O)N2[C@H]1C(=O)O` [Amoxicillin] + CC1(C)S[C@@H]2[C@H](NC(=O)Cc3ccccc3)C(=O)N2[C@H]1C(=O)O [PenicillinG] were -0.0781, 0.0595, -0.186 and -0.0644.
As for `CC1(C)S[C@@H]2[C@H](NC(=O)[C@H](N)c3ccc(O)cc3)C(=O)N2[C@H]1C(=O)O` [Amoxicillin] + CC(=O)O[C@H]1C[C@@]2(C)[C@@H](C[C@@H](O)[C@H]3[C@@]4(C)CC[C@@H](O)[C@@H](C)[C@@H]4CC[C@@]32C)/C1=C(\CCC=C(C)C)C(=O)O [Fusidic acid], the Bliss interaction score in assay [1] was 0.143; in assay [2], -0.0375; in assay [3], 0.0608; in assay [4] it was 0.0361.
As for `CC1(C)S[C@@H]2[C@H](NC(=O)[C@H](N)c3ccc(O)cc3)C(=O)N2[C@H]1C(=O)O` [Amoxicillin] + CCP(CC)CC.CC(=O)OC[C@@H]1[C@H]([C@@H]([C@H]([C@@H](O1)[S-])OC(=O)C)OC(=O)C)OC(=O)C.[Au+] [Auranofin], the Bliss interaction score in assay [1] is 0.178; in assay [2], -0.0817; in assay [3] it was -0.0508; in assay [4] it was 0.0373.
On to `CC1(C)S[C@@H]2[C@H](NC(=O)[C@H](N)c3ccc(O)cc3)C(=O)N2[C@H]1C(=O)O` [Amoxicillin] + CC[C@H]1OC(=O)[C@H](C)C(=O)[C@H](C)[C@@H](O[C@@H]2O[C@H](C)C[C@H](N(C)C)[C@H]2O)[C@](C)(OC)C[C@@H](C)C(=O)[C@H](C)[C@H]2N(CCCCn3cnc(-c4cccnc4)c3)C(=O)O[C@]12C [Telithromycin], for which the Bliss interaction score in assay [1] was 0.0336; in assay [2], -0.0609; in assay [3] it was -0.0851; in assay [4] it was -0.0292.
`CC1(C)S[C@@H]2[C@H](NC(=O)[C@H](N)c3ccc(O)cc3)C(=O)N2[C@H]1C(=O)O` [Amoxicillin] + CC[C@H]1OC(=O)[C@H](C)[C@@H](O[C@H]2C[C@@](C)(OC)[C@@H](O)[C@H](C)O2)[C@H](C)[C@@H](O[C@@H]2O[C@H](C)C[C@H](N(C)C)[C@H]2O)[C@](C)(O)C[C@@H](C)C(=O)[C@H](C)[C@@H](O)[C@]1(C)O [Erythromycin]: the Bliss interaction score was 0.0883 in assay [1], -0.0553 in assay [2], 0.0751 in assay [3] and -0.023 in assay [4].
For the compound `CC1(C)S[C@@H]2[C@H](NC(=O)[C@H](N)c3ccc(O)cc3)C(=O)N2[C@H]1C(=O)O` [Amoxicillin] + CN(C)[C@@H]1C(O)=C(C(N)=O)C(=O)[C@@]2(O)C(O)=C3C(=O)c4c(O)ccc(Cl)c4[C@@](C)(O)[C@H]3C[C@@H]12 [Clortetracycline], the Bliss interaction score in assay [1] is 0.168; in assay [2], -0.0669; in assay [3], 0.164; in assay [4], 0.0294.
For `CC1(C)S[C@@H]2[C@H](NC(=O)[C@H](N)c3ccc(O)cc3)C(=O)N2[C@H]1C(=O)O` [Amoxicillin] + CN[C@H](CC(C)C)C(=O)N[C@H]1C(=O)N[C@@H](CC(N)=O)C(=O)N[C@H]2C(=O)N[C@H]3C(=O)N[C@H](C(=O)N[C@H](C(=O)O)c4cc(O)cc(O)c4-c4cc3ccc4O)[C@H](O[C@H]3C[C@](C)(N)[C@@H](O)[C@H](C)O3)c3ccc(c(Cl)c3)Oc3cc2cc(c3O[C@@H]2O[C@H](CO)[C@@H](O)[C@H](O)[C@H]2O[C@H]2C[C@](C)(NCc3ccc(-c4ccc(Cl)cc4)cc3)[C@@H](O)[C@H](C)O2)Oc2ccc(cc2Cl)[C@H]1O [Oritavancin], the Bliss interaction score in assay [1] was -0.0312; in assay [2], 0.131; in assay [3], 0.0439; in assay [4], 0.0659.
On to `Cc1ccc(-c2cc(C(F)(F)F)nn2-c2ccc(S(N)(=O)=O)cc2)cc1` [Celecoxib] + CC[C@H]1OC(=O)[C@H](C)C(=O)[C@H](C)[C@@H](O[C@@H]2O[C@H](C)C[C@H](N(C)C)[C@H]2O)[C@](C)(OC)C[C@@H](C)C(=O)[C@H](C)[C@H]2N(CCCCn3cnc(-c4cccnc4)c3)C(=O)O[C@]12C [Telithromycin], for which the Bliss interaction score in assay [4] was -0.162.
Still for that read-out and setting: under `Cc1ccc(-c2cc(C(F)(F)F)nn2-c2ccc(S(N)(=O)=O)cc2)cc1` [Celecoxib] + CN(C)C(=O)C(CCN1CCC(O)(c2ccc(Cl)cc2)CC1)(c1ccccc1)c1ccccc1 [Loperamide] stands -0.452; under `CCN(CC)C(=O)/C(C#N)=C/c1cc(O)c(O)c([N+](=O)[O-])c1` [Entacapone] + CC(=O)NC[C@H]1CN(c2ccc(N3CCOCC3)c(F)c2)C(=O)O1 [Linezolid], -0.178; under `CCN(CC)C(=O)/C(C#N)=C/c1cc(O)c(O)c([N+](=O)[O-])c1` [Entacapone] + CN1C2=CC=CC=C2N=C3C1=CC=CC3=O [Pyocyanin], -0.283.
In the case of `CCN(CC)C(=O)/C(C#N)=C/c1cc(O)c(O)c([N+](=O)[O-])c1` [Entacapone] + CO[C@@]12[C@H](COC(N)=O)C3=C(C(=O)C(C)=C(N)C3=O)N1C[C@@H]1N[C@@H]12 [MitomycinC], the Bliss interaction score in assay [4] came to 0.176.
For the compound `C[C@]12CC[C@@H]3c4ccc(O)cc4CC[C@H]3[C@@H]1CC[C@@H]2O` [Estradiol] + CC1(C)S[C@@H]2[C@H](NC(=O)Cc3ccccc3)C(=O)N2[C@H]1C(=O)O [PenicillinG], the Bliss interaction score in assay [4] stood at 0.255.
For `C[C@]12CC[C@@H]3c4ccc(O)cc4CC[C@H]3[C@@H]1CC[C@@H]2O` [Estradiol] + CC[C@H]1OC(=O)[C@H](C)C(=O)[C@H](C)[C@@H](O[C@@H]2O[C@H](C)C[C@H](N(C)C)[C@H]2O)[C@](C)(OC)C[C@@H](C)C(=O)[C@H](C)[C@H]2N(CCCCn3cnc(-c4cccnc4)c3)C(=O)O[C@]12C [Telithromycin], in assay [4], the Bliss interaction score came to 0.268.
As for `C[C@]12CC[C@@H]3c4ccc(O)cc4CC[C@H]3[C@@H]1CC[C@@H]2O` [Estradiol] + CO[C@@]12[C@H](COC(N)=O)C3=C(C(=O)C(C)=C(N)C3=O)N1C[C@@H]1N[C@@H]12 [MitomycinC], the Bliss interaction score in assay [4] was determined as 0.179.
In the case of `C[C@]12CC[C@@H]3c4ccc(O)cc4CC[C@H]3[C@@H]1CC[C@@H]2O` [Estradiol] + COc1cc(Cc2cnc(N)nc2N)cc(OC)c1OC [Trimethoprim], the Bliss interaction score in assay [4] stood at 0.263.
Regarding `C[C@H]1COc2c(N3CCN(C)CC3)c(F)cc3c(=O)c(C(=O)O)cn1c23` [Levofloxacin] + Cc1c(Cl)cccc1Nc1ccccc1C(=O)O [Tolfenamic], the Bliss interaction score in assay [4] was -0.164.
Regarding `CN(C)C(=O)C(CCN1CCC(O)(c2ccc(Cl)cc2)CC1)(c1ccccc1)c1ccccc1` [Loperamide] + CC(C)(O)c1ccccc1CC[C@@H](SCC1(CC(=O)O)CC1)c1cccc(/C=C/c2ccc3ccc(Cl)cc3n2)c1 [Montelukast], in assay [4], the Bliss interaction score was -0.28.
For the compound `CN(C)C(=O)C(CCN1CCC(O)(c2ccc(Cl)cc2)CC1)(c1ccccc1)c1ccccc1` [Loperamide] + CCCSc1nc(N[C@@H]2C[C@H]2c2ccc(F)c(F)c2)c2nnn([C@@H]3C[C@H](OCCO)[C@@H](O)[C@H]3O)c2n1 [Ticagrelor], in assay [4], the Bliss interaction score was -0.453.
In the case of `CN(C)C(=O)C(CCN1CCC(O)(c2ccc(Cl)cc2)CC1)(c1ccccc1)c1ccccc1` [Loperamide] + CCOC(=O)N1CCC(=C2c3ccc(Cl)cc3CCc3cccnc32)CC1 [Loratadine], the Bliss interaction score in assay [4] was -0.278.
Take `CN(C)C(=O)C(CCN1CCC(O)(c2ccc(Cl)cc2)CC1)(c1ccccc1)c1ccccc1` [Loperamide] + CN1CCN(C2=Nc3ccccc3Oc3ccc(Cl)cc32)CC1 [Loxapine]: in assay [4], the Bliss interaction score amounted to 0.122.
On the same count and under the same terms, under `CN(C)C(=O)C(CCN1CCC(O)(c2ccc(Cl)cc2)CC1)(c1ccccc1)c1ccccc1` [Loperamide] + CN(Cc1cnc2nc(N)nc(N)c2n1)c1ccc(C(=O)N[C@@H](CCC(=O)O)C(=O)O)cc1 [Methotrexate] stands -0.309; under `CN(C)C(=O)C(CCN1CCC(O)(c2ccc(Cl)cc2)CC1)(c1ccccc1)c1ccccc1` [Loperamide] + C[C@H]1C[C@@H]2[C@H]([C@@H](O)C[C@@]3(C)[C@H]2CC[C@]3(O)C(=O)CO)[C@@]2(C)C=CC(=O)C=C12 [Methylprednisolone], -0.341.
In the case of `CN(C)C(=O)C(CCN1CCC(O)(c2ccc(Cl)cc2)CC1)(c1ccccc1)c1ccccc1` [Loperamide] + O=C(O)Cc1cc(I)c(Oc2ccc(O)c(I)c2)c(I)c1 [Tiratricol], in assay [4], the Bliss interaction score turned out to be 0.751.
With `CN(C)C(=O)C(CCN1CCC(O)(c2ccc(Cl)cc2)CC1)(c1ccccc1)c1ccccc1` [Loperamide] + O=c1c(O)c(-c2ccc(O)c(O)c2)oc2cc(O)cc(O)c12 [Quercetin], the Bliss interaction score in assay [4] came to 0.242.
On to `C[C@H]1C[C@@H]2[C@H]([C@@H](O)C[C@@]3(C)[C@H]2CC[C@]3(O)C(=O)CO)[C@@]2(C)C=CC(=O)C=C12` [Methylprednisolone] + CC[C@H]1OC(=O)[C@H](C)C(=O)[C@H](C)[C@@H](O[C@@H]2O[C@H](C)C[C@H](N(C)C)[C@H]2O)[C@](C)(OC)C[C@@H](C)C(=O)[C@H](C)[C@H]2N(CCCCn3cnc(-c4cccnc4)c3)C(=O)O[C@]12C [Telithromycin], for which, in assay [4], the Bliss interaction score is -0.356.
The same measure, in the same setting: the value for `CCCSc1nc(N[C@@H]2C[C@H]2c2ccc(F)c(F)c2)c2nnn([C@@H]3C[C@H](OCCO)[C@@H](O)[C@H]3O)c2n1` [Ticagrelor] + CC1=C\[C@@H](O)CC(=O)Cc2nc(co2)C(=O)N2CCC=C2C(=O)O[C@H](C(C)C)[C@H](C)/C=C/C(=O)NC\C=C\1 [Virginiamycin M1] was 0.253.
In the case of `CCCSc1nc(N[C@@H]2C[C@H]2c2ccc(F)c(F)c2)c2nnn([C@@H]3C[C@H](OCCO)[C@@H](O)[C@H]3O)c2n1` [Ticagrelor] + CN(C)c1cc(NC(=O)CNC(C)(C)C)c(O)c2c1C[C@H]1C[C@H]3[C@H](N(C)C)C(O)=C(C(N)=O)C(=O)[C@@]3(O)C(O)=C1C2=O [Tigecycline], in assay [4], the Bliss interaction score came out at 0.216.
For the compound `CCCSc1nc(N[C@@H]2C[C@H]2c2ccc(F)c(F)c2)c2nnn([C@@H]3C[C@H](OCCO)[C@@H](O)[C@H]3O)c2n1` [Ticagrelor] + CN[C@H](CC(C)C)C(=O)N[C@H]1C(=O)N[C@@H](CC(N)=O)C(=O)N[C@H]2C(=O)N[C@H]3C(=O)N[C@H](C(=O)N[C@H](C(=O)O)c4cc(O)cc(O)c4-c4cc3ccc4O)[C@H](O)c3ccc(c(Cl)c3)Oc3cc2cc(c3O[C@@H]2O[C@H](CO)[C@@H](O)[C@H](O)[C@H]2O[C@H]2C[C@](C)(N)[C@H](O)[C@H](C)O2)Oc2ccc(cc2Cl)[C@H]1O [Vancomycin], the Bliss interaction score in assay [4] worked out at 0.257.
Consider `CCCSc1nc(N[C@@H]2C[C@H]2c2ccc(F)c(F)c2)c2nnn([C@@H]3C[C@H](OCCO)[C@@H](O)[C@H]3O)c2n1` [Ticagrelor] + COc1cc(Cc2cnc(N)nc2N)cc(OC)c1OC [Trimethoprim], for which the Bliss interaction score in assay [4] was -0.152.
The same measure, in the same setting: the value for `CCCSc1nc(N[C@@H]2C[C@H]2c2ccc(F)c(F)c2)c2nnn([C@@H]3C[C@H](OCCO)[C@@H](O)[C@H]3O)c2n1` [Ticagrelor] + Oc1cc(Cl)ccc1Oc1ccc(Cl)cc1Cl [Triclosan] was 0.247.
